Reference: patent publication US20240391862A1, “(1,4,5-TRISUBSTITUTED-1H-PYRAZOL-3-YL)OXY-2-ALKOXY ALKYL ACIDS AND THEIR DERIVATIVES, THEIR SALTS AND THEIR USE AS HERBICIDAL AGENTS” (Bayer AKtiengesellschaft, priority 2021, published 2024)

Key:
ABUTH = experiment: Post-emergence herbicidal effect, greenhouse pot test; format: in vivo, Abutilon theophrasti; conditions: visual rating about 3 weeks after treatment
Procedure, shortened: (§1)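 Weeds sown in sandy loam, greenhouse-grown 2–3 weeks, then sprayed at one-leaf stage with WP or EC formulations in water plus 0.5% additive at 600 l/ha. Rates 20 to 320 g/ha. Visual rating after about 3 weeks versus untreated controls (100% = plants dead, 0% = like control).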

ALOMY = experiment: as above; format: in vivo, Alopecurus myosuroides; conditions: 320 g/ha, visual rating about 3 weeks after treatment
Procedure, shortened: as §1

AVEFA = experiment: as above; format: in vivo, Avena fatua; conditions: visual rating about 3 weeks after treatment
Procedure, shortened: as §1

TRZAS = experiment: Post-emergence herbicidal effect and crop plant compatibility, greenhouse pot test; format: in vivo, Triticum aestivum; conditions: 20 g/ha, one-leaf stage, rated visually after about 3 weeks vs untreated controls; for percent crop injury (phytotoxicity) to wheat, post-emergence at 20 g/ha: Triticum aestivum, 504 h, read-out: Post-emergence effect at 20 g/ha against TRZAS in %
Procedure, shortened: (§2)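 Greenhouse pot test: weeds and crops sown in sandy loam, sprayed post-emergence at one-leaf stage (2–3 weeks after sowing) with WP or EC formulations plus 0.5% additive at 600 l/ha water, rates 20–320 g/ha. Visual rating about 3 weeks later versus untreated controls (100% = dead, 0% = as control).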

SETVI = experiment: Post-emergence herbicidal effect, greenhouse pot test; format: in vivo, Setaria viridis
Procedure, shortened: as §1

DIGSA = experiment: as above; format: in vivo, Digitaria sanguinalis; conditions: 320 g/ha, visual rating about 3 weeks after treatment
Procedure, shortened: as §1

PHBPU = experiment: as above; format: in vivo, Ipomoea purpurea
Procedure, shortened: as §1

MATIN = experiment: as above; format: in vivo, Tripleurospermum inodorum
Procedure, shortened: as §1

VIOTR = experiment: as above; format: in vivo, Viola tricolor
Procedure, shortened: as §1

ECHCG = experiment: as above; format: in vivo, Echinochloa crus-galli
Procedure, shortened: as §1

VERPE = experiment: as above; format: in vivo, Veronica persica
Procedure, shortened: as §1

ORYSA = experiment: Post-emergence herbicidal effect and crop plant compatibility, greenhouse pot test; format: in vivo, Oryza sativa; conditions: for Post-emergence effect against ORYSA: visual rating about 3 weeks after treatment, crop plant; for Post-emergence effect at 320 g/ha against ORYSA in %: one-leaf stage, rated visually after about 3 weeks vs untreated controls
Text: • ALOMY: Alopecurus myosuroides SETVI: Setaria viridis • AVEFA: Avena fatua POLCO: Fallopia convolvulus • AMARE: Amaranthus retroflexus ECHCG: Echinochloa crus-galli • LOLRJ: Lolium rigidum STEME: Stellaria media • VERPE: Veronica persica MATIN: Tripleurospermum inodorum • DIGSA: Digitaria sanguinalis ABUTH: Abutylon threophrasti • TRZAS: Triticum aestivum VIOTR: Viola tricolor • BRSNW: Brassica napus ZEAMX: Zea mays • PHBPU: Ipomoea purpurea GLXMA: Glycine max • ORYSA: Oryza sativa HORMU: Hordeum murinum
Seeds of monocotyledonous and dicotyledonous weeds and crop plants are placed in sandy loam in plastic or organic planting pots, covered with soil and cultivated in a greenhouse under controlled growth conditions. 2 to 3 weeks after sowing, the trial plants are treated at the one-leaf stage. The compounds of the invention, formulated in the form of wettable powders (WP) or as emulsion concentrates (EC), are then sprayed onto the green parts of the plants as aqueous suspension or emulsion with addition of 0.5% additive at a water application rate of 600 l/ha (converted). After the test plants have been kept in the greenhouse under optimum growth conditions for about 3 weeks, the activity of the preparations is rated visually in comparison to untreated controls. For example, 100% activity=the plants have died, 0% activity=like control plants.
Tables 20a to 38c below show the effects/crop compatibilities of selected compounds of the general formula (I) on various harmful plants at an application rate corresponding to 20 to 320 g/ha, which were obtained by the trial procedure specified above.

AMARE = experiment: Post-emergence herbicidal effect, greenhouse pot test; format: in vivo, Amaranthus retroflexus; conditions: visual rating about 3 weeks after treatment; for pest or weed control at 320 g/ha: Amaranthus retroflexus, 504 h, read-out: Post-emergence effect against AMARE
Procedure, shortened: as §1

POLCO = experiment: as above; format: in vivo, Fallopia convolvulus; conditions: for pest or weed control at 320 g/ha: Fallopia convolvulus, 504 h, read-out: Post-emergence effect against POLCO in %
Procedure, shortened: as §1

ZEAMX = experiment: Post-emergence herbicidal effect and crop plant compatibility, greenhouse pot test; format: in vivo, Zea mays; conditions: one-leaf stage, rated visually after about 3 weeks vs untreated controls
Procedure, shortened: as §2

LOLRI = experiment: Post-emergence herbicidal effect, greenhouse pot test; format: in vivo, Lolium rigidum; conditions: Lolium rigidum, 504 h, 320 g/ha, read-out: Post-emergence effect against LOLRI in %
Procedure, shortened: as §1

[1] = Setaria viridis, 504 h, 320 g/ha, read-out: Post-emergence effect against SETVI in %
[2] = Ipomoea purpurea, 504 h, 320 g/ha, read-out: Post-emergence effect against PHBPU in %
[3] = Echinochloa crus-galli, 504 h, 320 g/ha, read-out: Post-emergence effect against ECHCG in %

COC(=O)C(OC)Oc1nn(-c2cccc(Cl)c2F)c(-c2cncc(F)c2)c1I (centres unmarked) [Example I-19]
Post-emergence effect against ABUTH (ABUTH; 80 g/ha): 90% | Post-emergence effect against ABUTH (ABUTH; 320 g/ha): 90% | Post-emergence effect against ALOMY (ALOMY): 80% | Post-emergence effect against AVEFA (AVEFA; 320 g/ha): 80% | Post-emergence effect at 20 g/ha against TRZAS in % (TRZAS): 20% | Post-emergence effect against SETVI in % (SETVI; 320 g/ha): 80% | Post-emergence effect against DIGSA (DIGSA): 90% | Post-emergence effect against PHBPU in % (PHBPU; 20 g/ha): 80% | Post-emergence effect against PHBPU in % (PHBPU; 80 g/ha): 90% | Post-emergence effect against PHBPU in % (PHBPU; 320 g/ha): 90% | Post-emergence effect against MATIN in % (MATIN; 320 g/ha): 80% | Post-emergence effect against VIOTR in % (VIOTR; 80 g/ha): 80% | Post-emergence effect against VIOTR in % (VIOTR; 320 g/ha): 80% | Post-emergence effect against ECHCG in % (ECHCG; 80 g/ha): 80% | Post-emergence effect against ECHCG in % (ECHCG; 320 g/ha): 90% | Post-emergence effect against VERPE in % (VERPE; 80 g/ha): 80% | Post-emergence effect against VERPE in % (VERPE; 320 g/ha): 80% | Post-emergence effect against ORYSA (ORYSA; 20 g/ha): 0% | Post-emergence effect against ORYSA (ORYSA; 80 g/ha): 0% | Post-emergence effect at 320 g/ha against ORYSA in % (ORYSA): 20% | Post-emergence effect against AMARE (AMARE; 80 g/ha): 80% | Post-emergence effect against AMARE (AMARE; 320 g/ha): 80% | Post-emergence effect against POLCO in % (POLCO; 80 g/ha): 80% | Post-emergence effect against POLCO in % (POLCO; 320 g/ha): 80%

COC(Oc1nn(-c2ccccc2F)c(-c2ccc(F)nc2)c1Br)C(=O)O (centres unmarked) [Example I-24]
Post-emergence effect at 20 g/ha against TRZAS in % (TRZAS): 0% | Post-emergence effect at 20 g/ha against ZEAMX in % (ZEAMX; 20 g/ha): 0% | Post-emergence effect at 80 g/ha against ZEAMX in % (ZEAMX; 80 g/ha): 10% | plant injury at 320 g/ha (ZEAMX; Zea mays, 504 h, 320 g/ha, read-out: Post-emergence effect at 320 g/ha against ZEAMX in %): 20% | Post-emergence effect at 320 g/ha against ORYSA in % (ORYSA): 10%

COC(=O)C(OC)Oc1nn(-c2cc(F)ccc2F)c(-c2cncc(F)c2)c1I (centres unmarked) [Example I-28]
pest or weed control at 80 g/ha (ABUTH; Abutilon theophrasti, 504 h, 80 g/ha, read-out: Post-emergence effect against ABUTH): 90% | pest or weed control at 320 g/ha (ABUTH; Abutilon theophrasti, 504 h, 320 g/ha, read-out: Post-emergence effect against ABUTH): 100% | pest or weed control at 320 g/ha (ALOMY; Alopecurus myosuroides, 504 h, read-out: Post-emergence effect against ALOMY): 90% | pest or weed control at 80 g/ha (AVEFA; Avena fatua, 504 h, 80 g/ha, read-out: Post-emergence effect against AVEFA): 80% | pest or weed control at 320 g/ha (AVEFA; Avena fatua, 504 h, 320 g/ha, read-out: Post-emergence effect against AVEFA): 90% | percent crop injury (phytotoxicity) to wheat, post-emergence at 20 g/ha (TRZAS): 20% | pest or weed control at 80 g/ha (SETVI; Setaria viridis, 504 h, 80 g/ha, read-out: Post-emergence effect against SETVI in %): 80% | pest or weed control at 320 g/ha (SETVI; [1]): 90% | pest or weed control at 320 g/ha (DIGSA; Digitaria sanguinalis, 504 h, read-out: Post-emergence effect against DIGSA): 80% | pest or weed control at 320 g/ha (LOLRI): 90% | pest or weed control at 20 g/ha (PHBPU; Ipomoea purpurea, 504 h, 20 g/ha, read-out: Post-emergence effect against PHBPU in %): 80% | pest or weed control at 80 g/ha (PHBPU; Ipomoea purpurea, 504 h, 80 g/ha, read-out: Post-emergence effect against PHBPU in %): 90% | pest or weed control at 320 g/ha (PHBPU; [2]): 90% | pest or weed control at 20 g/ha (MATIN; Tripleurospermum inodorum, 504 h, 20 g/ha, read-out: Post-emergence effect against MATIN in %): 80% | pest or weed control at 80 g/ha (MATIN; Tripleurospermum inodorum, 504 h, 80 g/ha, read-out: Post-emergence effect against MATIN in %): 90% | pest or weed control at 320 g/ha (MATIN; Tripleurospermum inodorum, 504 h, 320 g/ha, read-out: Post-emergence effect against MATIN in %): 90% | pest or weed control at 20 g/ha (VIOTR; Viola tricolor, 504 h, 20 g/ha, read-out: Post-emergence effect against VIOTR in %): 80% | pest or weed control at 80 g/ha (VIOTR; Viola tricolor, 504 h, 80 g/ha, read-out: Post-emergence effect against VIOTR in %): 90% | pest or weed control at 320 g/ha (VIOTR; Viola tricolor, 504 h, 320 g/ha, read-out: Post-emergence effect against VIOTR in %): 90% | pest or weed control at 80 g/ha (ECHCG; Echinochloa crus-galli, 504 h, 80 g/ha, read-out: Post-emergence effect against ECHCG in %): 90% | pest or weed control at 320 g/ha (ECHCG; [3]): 90% | pest or weed control at 320 g/ha (VERPE; Veronica persica, 504 h, 320 g/ha, read-out: Post-emergence effect against VERPE in %): 80% | Post-emergence effect at 320 g/ha against ORYSA in % (ORYSA): 20% | pest or weed control at 320 g/ha (AMARE; 320 g/ha): 80% | pest or weed control at 320 g/ha (POLCO; 320 g/ha): 80%

COC(=O)C(OC)Oc1nn(-c2cnccn2)c(-c2ccc(F)nc2)c1Br (centres unmarked) [Example I-36]
percent crop injury (phytotoxicity) to wheat, post-emergence at 20 g/ha (TRZAS): 20% | pest or weed control at 320 g/ha (SETVI; [1]): 80% | pest or weed control at 320 g/ha (LOLRI): 80% | pest or weed control at 320 g/ha (PHBPU; [2]): 80% | pest or weed control at 320 g/ha (ECHCG; [3]): 90% | Post-emergence effect at 320 g/ha against ORYSA in % (ORYSA): 20% | pest or weed control at 320 g/ha (AMARE; 320 g/ha): 80% | pest or weed control at 320 g/ha (POLCO; 320 g/ha): 80%
